Assay results as given in ChEMBL document CHEMBL5393446, “3-(1-oxo-5-(piperidin-4-yl)isoindolin-2-yl)piperidine-2,6-dione derivatives and uses thereof” (2022).

Molecular target: Zinc finger protein Helios (Homo sapiens) (UniProt Q9UKS7)
Experiment: Induction of IKZF2 degradation in human GripTite 293 MSR cells at 30 uM incubated for 24 hrs by PathHunter assay relative to control
Assay type: cell-based

Sequence of Zinc finger protein Helios (Homo sapiens) (Q9UKS7 whole entry): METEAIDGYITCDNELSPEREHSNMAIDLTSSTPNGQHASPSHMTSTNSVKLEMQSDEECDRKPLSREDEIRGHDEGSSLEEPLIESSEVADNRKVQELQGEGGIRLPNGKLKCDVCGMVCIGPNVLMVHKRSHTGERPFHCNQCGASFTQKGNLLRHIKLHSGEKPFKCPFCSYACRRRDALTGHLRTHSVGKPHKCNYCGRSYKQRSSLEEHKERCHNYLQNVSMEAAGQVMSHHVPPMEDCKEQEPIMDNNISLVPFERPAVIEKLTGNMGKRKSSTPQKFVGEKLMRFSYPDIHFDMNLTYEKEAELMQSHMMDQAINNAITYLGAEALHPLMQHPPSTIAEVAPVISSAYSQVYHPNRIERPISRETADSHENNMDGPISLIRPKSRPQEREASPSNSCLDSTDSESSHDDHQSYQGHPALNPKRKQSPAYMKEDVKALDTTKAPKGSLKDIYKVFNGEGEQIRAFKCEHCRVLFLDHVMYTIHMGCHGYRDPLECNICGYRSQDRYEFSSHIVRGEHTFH

Activity [%]	SMILES
30	CC1CC(c2ccc3c(c2)CN(C2CCC(=O)NC2=O)C3=O)CC(C)N1 (configuration not stated)
35	CC1CC(c2ccc3c(c2)CN(C2CCC(=O)NC2=O)C3=O)CC(C)N1Cc1ccccc1 (configuration not stated)
